biological target: IDO1 (Homo sapiens, UniProt P14902); experiment: IDO1 PBMC RapidFire MS Assay; type: cell-based; set-up: stimulated with human interferon-γ (IFN-γ); host or cells: human PBMC stimulated with IFN-gamma and LPS; details: human PBMC stimulated with IFN-γ and LPS; kynurenine detected by mass spectrometry; 2 days; read-out: IDO1 PBMC pIC50 (converted)
Procedure: IDO1 PBMC RapidFire MS Assay
Compounds of the present invention were tested via high-throughput cellular assays utilizing detection of kynurenine via mass spectrometry and cytotoxicity as end-points. For the mass spectrometry and cytotoxicity assays, human peripheral blood mononuclear cells (PBMC) (PB003F; AllCells®, Alameda, Calif.) were stimulated with human interferon-γ (IFN-γ) (Sigma-Aldrich Corporation, St. Louis, Mo.) and lipopolysaccharide from Salmonella minnesota (LPS) (Invivogen, San Diego, Calif.) to induce the expression of indoleamine 2, 3-dioxygenase (IDO1). Compounds with IDO1 inhibitory properties decreased the amount of kynurenine produced by the cells via the tryptophan catabolic pathway. Cellular toxicity due to the effect of compound treatment was measured using CellTiter-Glo® reagent (CTG) (Promega Corporation, Madison, Wis.), which is based on luminescent detection of ATP, an indicator of metabolically active cells.
In preparation for the assays, test compounds were serially diluted 3-fold in DMSO from a typical top concentration of 1 mM or 5 mM and plated at 0.5 μL in 384-well, polystyrene, clear bottom, tissue culture treated plates with lids (Greiner Bio-One, Kremsmünster, Austria) to generate 11-point dose response curves. Low control wells (0% kynurenine or 100% cytotoxicity) contained either 0.5 μL of DMSO in the presence of unstimulated (−IFN-γ/-LPS) PBMCs for the mass spectrometry assay or 0.5 μL of DMSO in the absence of cells for the cytotoxicity assay, and high control wells (100% kynurenine or 0% cytotoxicity) contained 0.5 μL of DMSO in the presence of stimulated (+IFN-γ/+LPS) PBMCs for both the mass spectrometry and cytotoxicity assays.
Frozen stocks of PBMCs were washed and recovered in RPMI 1640 medium (Thermo Fisher Scientific, Inc., Waltham, Mass.) supplemented with 10% v/v heat-inactivated fetal bovine serum (FBS) (Thermo Fisher Scientific, Inc., Waltham, Mass.), and 1× penicillin-streptomycin antibiotic solution (Thermo Fisher Scientific, Inc., Waltham, Mass.). The cells were diluted to 1,000,000 cells/mL in the supplemented RPMI 1640 medium. 50 μL of either the cell suspension, for the mass spectrometry assay, or medium alone, for the cytotoxicity assay, were added to the low control wells, on the previously prepared 384-well compound plates, resulting in 50,000 cells/well or 0 cells/well respectively. IFN-γ and LPS were added to the remaining cell suspension at final concentrations of 100 ng/ml and 50 ng/ml respectively, and 50 μL of the stimulated cells were added to all remaining wells on the 384-well compound plates. The plates, with lids, were then placed in a 37° C., 5% CO2 humidified incubator for 2 days.
Following incubation, the 384-well plates were removed from the incubator and allowed to equilibrate to room temperature for 30 minutes. For the cytotoxicity assay, CellTiter-Glo® was prepared according to the manufacturer's instructions, and 40 μL were added to each plate well. After a twenty minute incubation at room temperature, luminescence was read on an EnVision® Multilabel Reader (PerkinElmer Inc., Waltham, Mass.). For the mass spectrometry assay, 10 μL of supernatant from each well of the compound-treated plates were added to 40 μL of acetonitrile, containing 10 μM of an internal standard for normalization, in 384-well, polypropylene, V-bottom plates (Greiner Bio-One, Kremsmünster, Austria) to extract the organic analytes. Following centrifugation at 2000 rpm for 10 minutes, 10 μL from each well of the acetonitrile extraction plates were added to 90 μL of sterile, distilled H2O in 384-well, polypropylene, V-bottom plates for analysis of kynurenine and the internal standard on the RapidFire 300 (Agilent Technologies, Santa Clara, Calif.) and 4000 QTRAP MS (SCIEX, Framingham, Mass.). MS data were integrated using Agilent Technologies' RapidFire Integrator software, and data were normalized for analysis as a ratio of kynurenine to the internal standard. […]

Sequence of IDO1 (P14902 whole entry): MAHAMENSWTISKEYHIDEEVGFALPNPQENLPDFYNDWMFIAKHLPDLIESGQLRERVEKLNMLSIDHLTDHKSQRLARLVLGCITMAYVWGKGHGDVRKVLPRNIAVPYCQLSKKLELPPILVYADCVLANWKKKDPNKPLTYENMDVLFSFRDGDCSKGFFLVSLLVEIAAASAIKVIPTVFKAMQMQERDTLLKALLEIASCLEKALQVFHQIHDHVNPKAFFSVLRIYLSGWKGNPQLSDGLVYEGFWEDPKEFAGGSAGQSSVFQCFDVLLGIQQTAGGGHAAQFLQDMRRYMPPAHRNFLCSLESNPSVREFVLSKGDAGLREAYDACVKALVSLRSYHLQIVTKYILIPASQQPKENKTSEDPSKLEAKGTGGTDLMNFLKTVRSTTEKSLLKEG

Row | IC50 [nM] | SMILES
1 | 3.16 | CC(C)CN(c1ccc(C(C)(C)C(=O)O)cc1Nc1ccc(Cl)cn1)C1CCOCC1 [Example 1, 2-(3-((5-chloropyridin-2-yl)amino)-4-(isobutyl(tetrahydro-2H-pyran-4-yl)amino)phenyl)-2-methylpropanoic acid]
2 | 1.58 | CC(C)CN(c1ccc(C(C)(C)C(=O)NS(C)(=O)=O)cc1Nc1ccc(Cl)cn1)C1CCOCC1 [Example 2, 2-(3-((5-chloropyridin-2-yl)amino)-4-(isobutyl(tetrahydro-2H-pyran-4-yl)amino)phenyl)-2-methyl-N-(methylsulfonyl)propanamide]
3 | 20 | CC(C)CN(c1ccc(C(C)(C)C(=O)NS(=O)(=O)C(F)(F)F)cc1Nc1ccc(Cl)cn1)C1CCOCC1 [Example 3, 2-(3-((5-chloropyridin-2-yl)amino)-4-(isobutyl(tetrahydro-2H-pyran-4-yl)amino)phenyl)-2-methyl-N-((trifluoromethyl)sulfonyl)propanamide]
4 | 0.794 | CC(C)CN(c1ccc(C2(C(=O)NS(C)(=O)=O)CC2)cc1Nc1ccc(Cl)cn1)C1CCOCC1 [Example 4, 1-(3-((5-chloropyridin-2-yl)amino)-4-(isobutyl(tetrahydro-2H-pyran-4-yl)amino)phenyl)-N-(methylsulfonyl)cyclopropane-1-carboxamide]
5 | 6.31 | CC(C)CN(c1ccc(C2(C(=O)O)CC2)cc1Nc1ccc(Cl)cn1)C1CCOCC1 [Example 5, 1-(3-((5-chloropyridin-2-yl)amino)-4-(isobutyl(tetrahydro-2H-pyran-4-yl)amino)phenyl)cyclopropane-1-carboxylic acid]
6 | 6.31 | CC(C)CN(c1ncc(C(C)(C)C(=O)O)cc1Nc1ccc(Cl)cn1)C1CCOCC1 [Example 6, 2-(5-((5-chloropyridin-2-yl)amino)-6-(isobutyl(tetrahydro-2H-pyran-4-yl)amino)pyridin-3-yl)-2-methylpropanoic acid]
7 | 5.01 | CC(C)CN(c1ncc(C(C)(C)C(=O)NS(C)(=O)=O)cc1Nc1ccc(Cl)cn1)C1CCOCC1 [Example 7, 2-(5-((5-chloropyridin-2-yl)amino)-6-(isobutyl(tetrahydro-2H-pyran-4-yl)amino)pyridin-3-yl)-2-methyl-N-(methylsulfonyl)propanamide]
8 | 20 | CC(C)CN(c1ncc(C(C)(C)C(=O)NS(=O)(=O)C(F)(F)F)cc1Nc1ccc(Cl)cn1)C1CCOCC1 [Example 8, 2-(5-((5-chloropyridin-2-yl)amino)-6-(isobutyl(tetrahydro-2H-pyran-4-yl)amino)pyridin-3-yl)-2-methyl-N-((trifluoromethyl)sulfonyl)propanamide]
9 | 7.94 | CC(C)CN(c1ncc(C2(C(=O)O)CC2)cc1Nc1ccc(Cl)cn1)C1CCOCC1 [Example 9, 1-(5-((5-chloropyridin-2-yl)amino)-6-(isobutyl(tetrahydro-2H-pyran-4-yl)amino)pyridin-3-yl)cyclopropane-1-carboxylic acid]
10 | 25.1 | CC(C)CN(CC(C)C)c1ccc(C(C)(C)C(=O)O)cc1Nc1ccc(Cl)cn1 [Example 12, 2-(3-((5-chloropyridin-2-yl)amino)-4-(diisobutylamino)phenyl)-2-methylpropanoic acid]
11 | 6.31 | CC(C)CN(c1ccc(C(C)(C)C(=O)O)nc1Nc1ccc(Cl)cn1)C1CCOCC1 [Example 17, 2-(6-((5-chloropyridin-2-yl)amino)-5-(isobutyl(tetrahydro-2H-pyran-4-yl)amino)pyridin-2-yl)-2-methylpropanoic acid]
12 | 3.16 | CC(C)CN(c1ccc(C(C)(C)C(=O)NS(C)(=O)=O)nc1Nc1ccc(Cl)cn1)C1CCOCC1 [Example 18, 2-(6-((5-chloropyridin-2-yl)amino)-5-(isobutyl(tetrahydro-2H-pyran-4-yl)amino)pyridin-2-yl)-2-methyl-N-(methylsulfonyl)propanamide]
13 | 50.1 | CC(C)CN(c1cnc(C2(C(=O)O)CC2)cc1Nc1ccc(Cl)cn1)C1CCOCC1 [Example 25]

The remaining lines, values behind:

Row | SMILES | IC50 [nM]
14 | CC(C)CN(c1ncc(C2(C(=O)NS(C)(=O)=O)CC2)cc1Nc1ccc(Cl)cn1)C1CCOCC1 [Example 10, 1-(5-((5-chloropyridin-2-yl)amino)-6-(isobutyl(tetrahydro-2H-pyran-4-yl)amino)pyridin-3-yl)-N-(methylsulfonyl)cyclopropane-1-carboxamide] | 5.01
15 | CC(C)CN(c1ncc(C2(C(=O)NS(=O)(=O)C(F)(F)F)CC2)cc1Nc1ccc(Cl)cn1)C1CCOCC1 [Example 11, 1-(5-((5-chloropyridin-2-yl)amino)-6-(isobutyl(tetrahydro-2H-pyran-4-yl)amino)pyridin-3-yl)-N-((trifluoromethyl)sulfonyl)cyclopropane-1-carboxamide] | 31.6
16 | CC(C)CN(CC(C)C)c1ccc(C(C)(C)C(=O)O)cc1Nc1nc(C(F)(F)F)ns1 [Example 13, 2-(4-(diisobutylamino)-3-((3-(trifluoromethyl)-1,2,4-thiadiazol-5-yl)amino)phenyl)-2-methylpropanoic acid] | 12.6
17 | CC(C)CN(c1ccc(C2(C(=O)O)CC2)cc1Nc1nnc(C2CC2)s1)C1CCOCC1 [Example 14, 1-(3-((5-cyclopropyl-1,3,4-thiadiazol-2-yl)amino)-4-(isobutyl(tetrahydro-2H-pyran-4-yl)amino)phenyl)cyclopropane-1-carboxylic acid] | 15.8
18 | CC(C)CN(c1ccc(C2(C(=O)NS(C)(=O)=O)CC2)cc1Nc1nnc(C2CC2)s1)C1CCOCC1 [Example 19, 1-(3-((5-cyclopropyl-1,3,4-thiadiazol-2-yl)amino)-4-(isobutyl(tetrahydro-2H-pyran-4-yl)amino)phenyl)-N-(methylsulfonyl)cyclopropane-1-carboxamide] | 5.01
19 | COc1ncc(Nc2cc(C3(C(=O)NS(C)(=O)=O)CC3)ccc2N(CC(C)C)C2CCOCC2)cn1 [Example 20, 1-(4-(isobutyl(tetrahydro-2H-pyran-4-yl)amino)-3-((2-methoxypyrimidin-5-yl)amino)phenyl)-N-(methylsulfonyl)cyclopropane-1-carboxamide] | 12.6
20 | COCc1ccc(Nc2cc(C3(C(=O)NS(C)(=O)=O)CC3)ccc2N(CC(C)C)C2CCOCC2)cn1 [Example 21, 1-(4-(isobutyl(tetrahydro-2H-pyran-4-yl)amino)-3-((6-(methoxymethyl)pyridin-3-yl)amino)phenyl)-N-(methylsulfonyl)cyclopropane-1-carboxamide] | 39.8
21 | CC(C)CN(c1ccc(C2(C(=O)NS(C)(=O)=O)CC2)cc1Nc1cnc(C(N)=O)nc1)C1CCOCC1 [Example 22] | > 10000
22 | CC(C)CN(c1ccc(C2(C(=O)NS(C)(=O)=O)CC2)cc1Nc1cnc(C#N)nc1)C1CCOCC1 [Example 23] | 50.1
